In the CheMixHub viscosity set:
Several values for one entry are separate records, joined by “and”; a condition that tells them apart may be missing. Equal entries are not always repeated.

Test: xn = mol fraction of the nth substance listed

CC(C)O + O
Details	viscosity
293.15 K, 100 kPa, x1 = 0.2	3.802 mPa·s and 3.645 mPa·s
293.15 K, 100 kPa, x1 = 0.3	3.735 mPa·s
293.15 K, 101 kPa, x1 = 0.01	1.17 mPa·s
293.15 K, 101 kPa, x1 = 0.02	1.369 mPa·s
293.15 K, 101 kPa, x1 = 0.032	1.67 mPa·s
293.15 K, 101 kPa, x1 = 0.05	2.062 mPa·s
293.15 K, 101 kPa, x1 = 0.07069	2.544 mPa·s
293.15 K, 101 kPa, x1 = 0.1	3.054 mPa·s
293.15 K, 101 kPa, x1 = 0.11	3.26 mPa·s
293.15 K, 101 kPa, x1 = 0.2	3.741 mPa·s
293.15 K, 101 kPa, x1 = 0.23	3.875 mPa·s
293.15 K, 101 kPa, x1 = 0.41	3.493 mPa·s
298.15 K, 101 kPa, x1 = 0.01	1.029 mPa·s
298.15 K, 101 kPa, x1 = 0.02	1.188 mPa·s
298.15 K, 101 kPa, x1 = 0.032	1.416 mPa·s
298.15 K, 101 kPa, x1 = 0.07069	2.089 mPa·s
298.15 K, 101 kPa, x1 = 0.1	2.472 mPa·s
298.15 K, 101 kPa, x1 = 0.11	2.601 mPa·s
298.15 K, 101 kPa, x1 = 0.23	3.141 mPa·s
298.15 K, 101 kPa, x1 = 0.41	2.912 mPa·s
298.15 K, 101 kPa, x2 = 0.26	2.142 mPa·s
298.15 K, 101 kPa, x2 = 0.4678	2.527 mPa·s
298.15 K, 101 kPa, x2 = 0.6079	2.87 mPa·s
298.15 K, 101 kPa, x2 = 0.685	3.03 mPa·s
298.15 K, 101 kPa, x2 = 0.7249	3.054 mPa·s
298.15 K, 101 kPa, x2 = 0.805	2.978 mPa·s
298.15 K, 101 kPa, x2 = 0.89	2.431 mPa·s
298.15 K, 101 kPa, x2 = 0.9549	1.655 mPa·s
298.15 K, 101.33 kPa, x1 = 0.015	1.112 mPa·s
298.15 K, 101.33 kPa, x1 = 0.05	1.747 mPa·s
298.15 K, 101.33 kPa, x1 = 0.075	2.181 mPa·s
298.15 K, 101.33 kPa, x1 = 0.15	2.883 mPa·s
298.15 K, 101.33 kPa, x1 = 0.2	3.008 mPa·s
298.15 K, 101.33 kPa, x1 = 0.25	3.057 mPa·s
298.15 K, 101.33 kPa, x1 = 0.3	3.026 mPa·s
298.15 K, 101.33 kPa, x1 = 0.4	2.855 mPa·s
298.15 K, 101.33 kPa, x1 = 0.5	2.631 mPa·s
298.15 K, 101.33 kPa, x1 = 0.6	2.411 mPa·s
298.15 K, 101.33 kPa, x1 = 0.7	2.23 mPa·s
298.15 K, 101.33 kPa, x1 = 0.8	2.098 mPa·s
298.15 K, 101.33 kPa, x1 = 0.9	2.03 mPa·s
298.15 K, 101.33 kPa, x1 = 0.925	2.026 mPa·s
298.15 K, 101.33 kPa, x1 = 0.95	2.031 mPa·s
303.15 K, 100 kPa, x2 = 0.1	1.77 mPa·s
303.15 K, 100 kPa, x2 = 0.2	1.83 mPa·s
303.15 K, 100 kPa, x2 = 0.3	1.95 mPa·s
303.15 K, 100 kPa, x2 = 0.4	2.1 mPa·s
303.15 K, 100 kPa, x2 = 0.5	2.25 mPa·s
303.15 K, 100 kPa, x2 = 0.6	2.42 mPa·s
303.15 K, 100 kPa, x2 = 0.7	2.54 mPa·s
303.15 K, 100 kPa, x2 = 0.8	2.47 mPa·s
303.15 K, 100 kPa, x2 = 0.9	1.95 mPa·s
303.15 K, 101 kPa, x1 = 0.01	0.912 mPa·s
303.15 K, 101 kPa, x1 = 0.02	1.04 mPa·s
303.15 K, 101 kPa, x1 = 0.05	1.467 mPa·s
303.15 K, 101 kPa, x1 = 0.07069	1.735 mPa·s
303.15 K, 101 kPa, x1 = 0.1	2.041 mPa·s
303.15 K, 101 kPa, x1 = 0.2	2.504 mPa·s
303.15 K, 101 kPa, x1 = 0.23	2.573 mPa·s
303.15 K, 101 kPa, x1 = 0.41	2.434 mPa·s
303.15 K, 101 kPa, x2 = 0.1049	1.789 mPa·s
303.15 K, 101 kPa, x2 = 0.26	1.863 mPa·s
303.15 K, 101 kPa, x2 = 0.4678	2.158 mPa·s
303.15 K, 101 kPa, x2 = 0.6079	2.439 mPa·s
303.15 K, 101 kPa, x2 = 0.685	2.55 mPa·s
303.15 K, 101 kPa, x2 = 0.7249	2.557 mPa·s
303.15 K, 101 kPa, x2 = 0.805	2.451 mPa·s
303.15 K, 101 kPa, x2 = 0.89	2.007 mPa·s
303.15 K, 101 kPa, x2 = 0.9549	1.419 mPa·s
308.15 K, 101 kPa, x1 = 0.01	0.815 mPa·s
308.15 K, 101 kPa, x1 = 0.02	0.923 mPa·s
308.15 K, 101 kPa, x1 = 0.032	1.056 mPa·s
308.15 K, 101 kPa, x1 = 0.05	1.263 mPa·s
308.15 K, 101 kPa, x1 = 0.07069	1.48 mPa·s
308.15 K, 101 kPa, x1 = 0.1	1.717 mPa·s
308.15 K, 101 kPa, x1 = 0.11	1.749 mPa·s
308.15 K, 101 kPa, x1 = 0.2	2.109 mPa·s
308.15 K, 101 kPa, x1 = 0.23	2.142 mPa·s
308.15 K, 101 kPa, x1 = 0.41	2.044 mPa·s
308.15 K, 101 kPa, x2 = 0.1049	1.56 mPa·s
308.15 K, 101 kPa, x2 = 0.26	1.616 mPa·s
308.15 K, 101 kPa, x2 = 0.4678	1.856 mPa·s
308.15 K, 101 kPa, x2 = 0.6079	2.072 mPa·s
308.15 K, 101 kPa, x2 = 0.685	2.169 mPa·s
308.15 K, 101 kPa, x2 = 0.7249	2.178 mPa·s
308.15 K, 101 kPa, x2 = 0.805	2.088 mPa·s
308.15 K, 101 kPa, x2 = 0.89	1.675 mPa·s
308.15 K, 101 kPa, x2 = 0.9549	1.23 mPa·s
313.15 K, 101 kPa, x1 = 0.01	0.733 mPa·s
313.15 K, 101 kPa, x1 = 0.02	0.823 mPa·s
313.15 K, 101 kPa, x1 = 0.032	0.933 mPa·s
313.15 K, 101 kPa, x1 = 0.05	1.098 mPa·s
313.15 K, 101 kPa, x1 = 0.07069	1.27 mPa·s
313.15 K, 101 kPa, x1 = 0.1	1.458 mPa·s
313.15 K, 101 kPa, x1 = 0.11	1.495 mPa·s
313.15 K, 101 kPa, x1 = 0.2	1.789 mPa·s
313.15 K, 101 kPa, x1 = 0.23	1.821 mPa·s
313.15 K, 101 kPa, x1 = 0.41	1.731 mPa·s
313.15 K, 101 kPa, x2 = 0.1049	1.365 mPa·s
313.15 K, 101 kPa, x2 = 0.26	1.412 mPa·s
313.15 K, 101 kPa, x2 = 0.4678	1.604 mPa·s
313.15 K, 101 kPa, x2 = 0.6079	1.788 mPa·s
313.15 K, 101 kPa, x2 = 0.685	1.855 mPa·s
313.15 K, 101 kPa, x2 = 0.7249	1.858 mPa·s
313.15 K, 101 kPa, x2 = 0.805	1.781 mPa·s
313.15 K, 101 kPa, x2 = 0.89	1.447 mPa·s
313.15 K, 101 kPa, x2 = 0.9549	1.076 mPa·s
313.15 K, 101.33 kPa, x1 = 0.015	0.7848 mPa·s
313.15 K, 101.33 kPa, x1 = 0.05	1.113 mPa·s
313.15 K, 101.33 kPa, x1 = 0.075	1.292 mPa·s
313.15 K, 101.33 kPa, x1 = 0.1	1.453 mPa·s
313.15 K, 101.33 kPa, x1 = 0.15	1.665 mPa·s
313.15 K, 101.33 kPa, x1 = 0.2	1.777 mPa·s
313.15 K, 101.33 kPa, x1 = 0.25	1.823 mPa·s
313.15 K, 101.33 kPa, x1 = 0.3	1.822 mPa·s
313.15 K, 101.33 kPa, x1 = 0.4	1.756 mPa·s
313.15 K, 101.33 kPa, x1 = 0.5	1.649 mPa·s
313.15 K, 101.33 kPa, x1 = 0.6	1.539 mPa·s
313.15 K, 101.33 kPa, x1 = 0.7	1.446 mPa·s
313.15 K, 101.33 kPa, x1 = 0.8	1.375 mPa·s
313.15 K, 101.33 kPa, x1 = 0.85	1.35 mPa·s
313.15 K, 101.33 kPa, x1 = 0.9	1.327 mPa·s
313.15 K, 101.33 kPa, x1 = 0.925	1.331 mPa·s
313.15 K, 101.33 kPa, x1 = 0.95	1.332 mPa·s
313.15 K, 101.33 kPa, x1 = 0.975	1.336 mPa·s
318.15 K, 101 kPa, x1 = 0.01	0.664 mPa·s
318.15 K, 101 kPa, x1 = 0.02	0.739 mPa·s
318.15 K, 101 kPa, x1 = 0.032	0.836 mPa·s
318.15 K, 101 kPa, x1 = 0.05	0.966 mPa·s
318.15 K, 101 kPa, x1 = 0.07069	1.103 mPa·s
318.15 K, 101 kPa, x1 = 0.1	1.261 mPa·s
318.15 K, 101 kPa, x1 = 0.11	1.315 mPa·s
318.15 K, 101 kPa, x1 = 0.2	1.539 mPa·s
318.15 K, 101 kPa, x1 = 0.23	1.579 mPa·s
318.15 K, 101 kPa, x1 = 0.41	1.484 mPa·s
318.15 K, 101 kPa, x2 = 0.1049	1.182 mPa·s
318.15 K, 101 kPa, x2 = 0.26	1.237 mPa·s
318.15 K, 101 kPa, x2 = 0.4678	1.397 mPa·s
318.15 K, 101 kPa, x2 = 0.6079	1.561 mPa·s
318.15 K, 101 kPa, x2 = 0.685	1.604 mPa·s
318.15 K, 101 kPa, x2 = 0.7249	1.598 mPa·s
318.15 K, 101 kPa, x2 = 0.805	1.539 mPa·s
318.15 K, 101 kPa, x2 = 0.89	1.255 mPa·s
318.15 K, 101 kPa, x2 = 0.9549	0.95 mPa·s
323.15 K, 100 kPa, x1 = 0.2	1.375 mPa·s and 1.3 mPa·s
323.15 K, 100 kPa, x1 = 0.3	1.387 mPa·s
323.15 K, 100 kPa, x2 = 0.1	1.03 mPa·s
323.15 K, 100 kPa, x2 = 0.2	1.08 mPa·s
323.15 K, 100 kPa, x2 = 0.3	1.11 mPa·s
323.15 K, 100 kPa, x2 = 0.4	1.21 mPa·s
323.15 K, 100 kPa, x2 = 0.5	1.26 mPa·s
323.15 K, 100 kPa, x2 = 0.6	1.37 mPa·s
323.15 K, 100 kPa, x2 = 0.7	1.37 mPa·s
323.15 K, 100 kPa, x2 = 0.8	1.37 mPa·s
323.15 K, 100 kPa, x2 = 0.9	1.14 mPa·s
323.15 K, 101 kPa, x1 = 0.01	0.604 mPa·s
323.15 K, 101 kPa, x1 = 0.02	0.668 mPa·s
323.15 K, 101 kPa, x1 = 0.05	0.856 mPa·s
323.15 K, 101 kPa, x1 = 0.07069	0.969 mPa·s
323.15 K, 101 kPa, x1 = 0.1	1.101 mPa·s
